The text below walks through data of ChEMBL document CHEMBL4312016, “Amide-sulfamide modulators as effective anti-tumor metastatic agents targeting CXCR4/CXCL12 axis” (Eur J Med Chem, 2020).

Series [1] addresses C-X-C chemokine receptor type 4 (Homo sapiens) (UniProt P61073). Nature of the series: Competitive binding affinity at CXCR4 in human MDA-MB-231 cells preincubated for 10 mins followed by biotinylated TN14003 addition further incubated for 30 mins by fluorescence microscopy. Type of series: cell-based.
Series [2] has the same target. The series is described as follows: Inhibition of CXCR4-mediated chemotaxis in human MDA-MB-231 cells assessed as reduction in CXCL12alpha-induced cell invasion after 22 hrs by hematoxylin/eosin dye-based matrigel assay relative to control. On the set-up: concentration or dose not given beside the values. The note with it: concentration not given here.
Series [3] deals with MDA-MB-231. Nature of the series: Inhibition of fibronectin-induced cell adhesion in human MDA-MB-231 cells at 1 to 10 uM incubated for 6 hrs by inverted microscopy. Type of series: functional, cell-based.
Series [4] has as its system MDA-MB-231. Nature of the series: Inhibition of cell migration in human MDA-MB-231 cells at 10 uM incubated for 24 hrs by inverted microscopy. Type of series: functional, cell-based.
The subject of series [5] is MDA-MB-231. The series is described as follows: Inhibition of cell migration in human MDA-MB-231 cells incubated for 24 hrs by inverted microscopy. Type of series: functional, cell-based.
Series [6] has as its system HUVEC. The series is described as follows: Antiangiogenic activity in HUVEC assessed as inhibition of tube formation at 10 uM incubated for 4 hrs by matrigel assay. Type of series: functional, cell-based. The note with it: Homo sapiens.
The test system of series [7] is MDA-MB-231. Nature of the series: Inhibition of metastasis in human MDA-MB-231 cells assessed as decrease in p-mTOR expression at 10 uM incubated for 24 hrs by Western blot analysis. In kind it is functional, cell-based. Background: Immunoblotting shows a protein as a band on a membrane.
Series [8] concerns MDA-MB-231. Nature of the series: Inhibition of metastasis in human MDA-MB-231 cells assessed as decrease in P70S6K expression at 10 uM incubated for 24 hrs by Western blot analysis. Type of series: functional, cell-based.
Series [9] deals with MDA-MB-231. The series is described as follows: Inhibition of metastasis in human MDA-MB-231 cells assessed as decrease in p-4E-BP1 expression at 10 uM incubated for 24 hrs by Western blot analysis. In kind it is functional, cell-based.
In series [10] the test system is MDA-MB-231. The series is described as follows: Antimetastatic activity against human MDA-MB-231 cells xenografted in BALB/c mouse assessed as reduction in lung metastatic nodules at 20 mg/kg, ip administered twice a day for 2 weeks and measured on day 14. Type of series: functional, organism-based. Background: A xenograft is tissue or cells of one species grown in another, often human tumour cells in immunodeficient mice.

Series [11] relates to MDA-MB-231. The series is described as follows: Antimetastatic activity against human MDA-MB-231 cells xenografted in BALB/c mouse assessed as reduction in lung metastasis at 20 mg/kg, ip administered twice a day for 2 weeks and measured on day 14 relative to control. Type of series: functional. The note with it: MDA-MB-231, ip, 336 h.
The nature of series [12]: Toxicity in BALB/c mouse xenografted with human MDA-MB-231 cells assessed as effect on body weight at 20 mg/kg, po administered twice a day for 2 weeks. Type of series: organism-based. The note with it: in vivo, 336 h.
The target of series [13] is C-X-C chemokine receptor type 4 (Homo sapiens) (UniProt P61073). Nature of the series: Inhibition of CXCR4-mediated chemotaxis in human MDA-MB-231 cells assessed as reduction in CXCL12alpha-induced cell invasion after 22 hrs by hematoxylin/eosin dye-based matrigel assay.

Active and inactive are the calls of the source. The calls are words filed in the database; no cut-off is given here.

Sequence of C-X-C chemokine receptor type 4 (Homo sapiens) (P61073 whole entry): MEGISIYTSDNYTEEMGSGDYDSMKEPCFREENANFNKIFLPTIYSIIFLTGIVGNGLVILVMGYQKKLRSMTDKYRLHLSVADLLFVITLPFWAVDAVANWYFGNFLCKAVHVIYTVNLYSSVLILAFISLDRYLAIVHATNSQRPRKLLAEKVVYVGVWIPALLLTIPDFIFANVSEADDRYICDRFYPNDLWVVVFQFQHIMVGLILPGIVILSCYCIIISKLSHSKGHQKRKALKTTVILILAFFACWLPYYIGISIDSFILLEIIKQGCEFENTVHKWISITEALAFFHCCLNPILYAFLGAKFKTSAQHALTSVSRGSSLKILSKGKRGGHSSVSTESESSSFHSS

The compound `O=C(NCc1ccc(CNS(=O)(=O)c2cccc(F)c2)cc1)c1cccnc1` gave an EC in [1] of 1000 nM.
Usually inhibition stands for how much of the control response was suppressed. Usually inhibition in vivo stands for the percentage by which the read-out fell short of the control. `O=C(NCc1ccc(CNS(=O)(=O)c2ccc(F)cc2)cc1)c1cccnc1` returned an EC in series [1] of 100 nM. Also, the inhibition in series [2] was 92%; in series [5], “Dose-dependent effect”. Further, the inhibition entry in [3], in [4], in series [6], in series [7], in series [8] and in [9] was “Active” each time. Moreover, in series [10], the result was Active. Moreover, the inhibition in vivo at 20 mg/kg in series [11] was 43%. Moreover, the Activity entry in series [12] was “Non-Toxic”.
On to `O=C(NCc1ccc(CNS(=O)(=O)c2ccc(Cl)cc2)cc1)c1cccnc1`, for which the EC in series [1] was 1000 nM.
Still for that read-out and setting: with `COc1ccccc1C(=O)NCc1ccc(CNS(=O)(=O)c2ccc([N+](=O)[O-])cc2)cc1` the figure was 100 nM; with `COc1ccccc1C(=O)NCc1ccc(CNS(=O)(=O)c2ccc(Cl)cc2)cc1`, 1000 nM; with `COc1ccccc1C(=O)NCc1ccc(CNS(=O)(=O)c2cccc3ccccc23)cc1`, greater than 1000 nM.
`COc1ccccc1C(=O)NCc1ccc(CNS(=O)(=O)c2ccccc2Cl)cc1` gave an EC in series [1] of 100 nM. Moreover, the inhibition in series [2] came out at 99%. For the same compound, the inhibition result in series [3] and in [4] was “Active” each time.
Compound `COc1ccccc1C(=O)NCc1ccc(CNS(=O)(=O)c2ccccc2C)cc1` registered an EC in series [1] of 1000 nM.
In the case of `O=C(NCc1ccc(CNS(=O)(=O)c2cccc3ccccc23)cc1)c1cccnc1`, the EC in series [1] was determined as 1000 nM.
As to `Cc1ccccc1C(=O)NCc1ccc(CNS(=O)(=O)c2ccccc2C)cc1`, the EC in series [1] was determined as 10 nM. Further, in [2], the inhibition came out at 99%. In addition, the inhibition entry in series [3], in series [4] and in series [6] was “Active” in each case.
`Cc1ccccc1C(=O)NCc1ccc(CNS(=O)(=O)c2ccccc2F)cc1` gave an EC in series [1] of 1000 nM.
On the same count and under the same terms, with `Cc1cccc(S(=O)(=O)NCc2ccc(CNC(=O)c3cccnc3)cc2)c1` the figure was 10 nM.
Still for that read-out and setting: with `Cc1ccccc1S(=O)(=O)NCc1ccc(CNC(=O)c2cccnc2)cc1` the figure was 1000 nM.
On to `O=C(NCc1ccc(CNS(=O)(=O)c2ccccc2Cl)cc1)c1cccnc1`, for which, in series [1], the EC is 100 nM. Moreover, the inhibition in series [2] was determined as 96%. Moreover, the inhibition result in series [3], in [4] and in [6] was “Active” throughout.
Consider `O=C(NCc1ccc(CNS(=O)(=O)c2ccc([N+](=O)[O-])cc2)cc1)c1cccnc1`, for which, in series [1], the EC was determined as 100 nM. The inhibition result in [13] is “inactive”.
With `Cc1cccc(S(=O)(=O)NCc2ccc(CNC(=O)c3ccccc3C)cc2)c1`, the EC in series [1] came out at 1000 nM.
In [1], `COc1ccccc1C(=O)NCc1ccc(CNS(=O)(=O)c2ccc(F)cc2)cc1` showed an EC of 100 nM.
Turning to `Cc1ccccc1C(=O)NCc1ccc(CNS(=O)(=O)c2cccc(F)c2)cc1`, the EC in [1] was 100 nM.
On the same count and under the same terms, with `COc1ccccc1C(=O)NCc1ccc(CNS(=O)(=O)c2cccc(F)c2)cc1` the figure was 1000 nM; with `COc1ccccc1C(=O)NCc1ccc(CNS(=O)(=O)c2cccc(Cl)c2)cc1`, 1000 nM; with `Cc1ccccc1C(=O)NCc1ccc(CNS(=O)(=O)c2ccccc2Cl)cc1`, 1000 nM.
Regarding `Cc1ccccc1C(=O)NCc1ccc(CNS(=O)(=O)c2ccc(Cl)cc2)cc1`, the EC in series [1] was 1 nM.
As for `COc1ccccc1C(=O)NCc1ccc(CNS(=O)(=O)c2ccccc2F)cc1`, in series [1], the EC is 1 nM. Further, in series [13], the inhibition entry is “inactive”.
Compound `Cc1ccccc1C(=O)NCc1ccc(CNS(=O)(=O)c2cccc(Cl)c2)cc1` displayed an EC in series [1] of 100 nM. In addition, the inhibition in series [2] is 99%. Further, the inhibition entry in series [3] and in [4] was “Active” throughout.
For `Cc1ccccc1C(=O)NCc1ccc(CNS(=O)(=O)c2ccc(F)cc2)cc1`, the EC in series [1] turned out to be 10 nM.
On the same count and under the same terms, with `Cc1ccccc1C(=O)NCc1ccc(CNS(=O)(=O)c2ccc([N+](=O)[O-])cc2)cc1` the figure was 100 nM; with `Cc1ccccc1C(=O)NCc1ccc(CNS(=O)(=O)c2cccc3ccccc23)cc1`, 100 nM.
The same measure, in the same setting: with `O=C(NCc1ccc(CNS(=O)(=O)c2ccccc2F)cc1)c1cccnc1` the figure was 100 nM; with `COc1ccccc1C(=O)NCc1ccc(CNS(=O)(=O)c2cccc(C)c2)cc1`, 1000 nM; with `O=C(NCc1ccc(CNS(=O)(=O)c2cccc(Cl)c2)cc1)c1cccnc1`, 100 nM.
